Reference: the METLIN SMRT retention time set (Domingo-Almenara et al. 2019)

Test: gradient 5% acetonitrile 3 min, to 50% in 2 min, to 85% in 15 min, held 3 min, 100 µL/min
Conditions: column: Zorbax Extend-C18 2.1 x 50 mm; eluents: water / acetonitrile, 0.1% formic acid
In short: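 In both positive and negative ionization mode, a quadrupole time-of-flight mass spectrometer coupled to HPLC analyzed pure standards run in mixtures of ~100 molecules. The Zorbax Extend-C18 column (2.1 × 50 mm, 1.8 μm) was operated at 100 μL/min with water and acetonitrile, each containing 0.1% formic acid. The dead volume was 40 μL and the dwell volume 900 μL. Retention time came from adduct peaks that were computationally picked and individually inspected by hand.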

| Structure (SMILES) | RP-LC retention time |
| --- | --- |
| O=C(NCc1ccc2c(c1)OCO2)C1CCN(c2cncnc2N2CCCCC2)CC1 | 659 s |
| COC(=O)c1cnc2nc(C)ccc2c1Nc1cc(OC)cc(OC)c1 | 735 s |
| COc1ccc(Nc2nc(C(=O)Nc3ccc4c(c3)OCCO4)cs2)c(OC)c1 | 865 s |
| CN(CCCNC(=O)C1CCN(c2nc3ccccc3n(C)c2=O)CC1)C1CCCCC1 | 650 s |
| COc1cc(NC(=O)C2CN(S(=O)(=O)C3CC3)CC23CCCCC3)cc(OC)c1 (centres undefined) | 955 s |
| O=C(Nc1cc(F)ccc1Cl)c1cnc(-c2ccccc2)nc1-c1ccncc1 | 1000 s |
| CS(=O)(=O)N1CCCc2cc(C(=O)NCc3ccccn3)ccc21 | 607 s |
| O=C(Nc1ccccc1F)N1CCC(CCOc2ccccc2)CC1 | 1030 s |
| Cc1cc(C(=O)Nc2nc3c(s2)CN(C(=O)c2cnn(-c4ccccc4)c2C)CC3)no1 | 712 s |
| CCC(=O)Nc1ccc2c(c1)nc(CN1CCOCC1)n2C(C)C | 587 s |
| Cc1nn(CC(=O)NCc2ccccn2)c(=O)c2nc(-c3ccccc3)sc12 | 633 s |
| Cn1c(=O)c2cc(C(=O)Nc3ccc(F)c(F)c3)cnc2n(-c2ccccc2)c1=O | 937 s |
| Cc1[nH]c(C(=O)N2CCCC(C(=O)NCc3ccc(Cl)cc3)C2)c(C)c1C(=O)OC(C)C (centres undefined) | 610 s |
| Nc1c(C(=O)Nc2cc(F)ccc2F)nnn1-c1ccccc1 | 989 s |
| Cc1noc(-c2cc(=O)n(CC(=O)NCc3ccccc3)c3ccccc23)n1 | 812 s |
| CCN1c2cc(F)ccc2C(=O)NC12CCN(C(=O)c1cccc(C)c1)CC2 | 824 s |
| CCn1c(=O)sc2cc(S(=O)(=O)N3CCC(C(=O)NCc4ccccc4)CC3)ccc21 | 845 s |
| O=C(Cn1nc2n(c1=O)CCCCC2)Nc1cccc(F)c1 | 701 s |
| COc1ccc(CNC(=O)N2CCC3(C2)C(=O)N(C)c2ccc(OC)cc23)cc1 (centres undefined) | 747 s |
| O=C(NCc1ccc(Cl)cc1)C1CCN(C(=O)C2Sc3ccccc3NC2=O)CC1 (centres undefined) | 765 s |
| CN(C)c1ccc(CNC(=O)CCCN2C(=O)CCn3nc(-c4cccn4C)cc32)cc1 | 610 s |
| CCn1ccc2c(cc(C(=O)Nc3ccc(F)cc3Cl)n2C)c1=O | 776 s |
| CCc1cc(C2CCCN2C(=O)Nc2ccccc2Cl)on1 (centres undefined) | 910 s |

| Structure (SMILES) | RP-LC retention time |
| --- | --- |
| Cn1c(=O)n(C)c2cc(N3CCCCC3)c(NC(=O)c3cccs3)cc21 | 890 s |
| Cn1nc(-c2nnc(-c3ccccc3)o2)c2c1CCN(S(=O)(=O)c1cc(F)ccc1F)C2 | 940 s |
| O=c1c2sccc2n(Cc2nc(-c3ccc(F)c(Cl)c3)no2)c(=O)n1-c1ccc(F)cc1 | 1090 s |
| Cc1cccc(Nc2c(-c3cccc(O)c3)nc3cnccn23)c1C | 816 s |
| CCn1c(C(=O)NCCc2c[nH]c3ccccc23)cc2c(-c3cccs3)nn(-c3ccccc3)c21 | 1150 s |
| CCn1c(=O)n(Cc2cccnc2)c(=O)c2cnc(-c3ccc(OC)cc3)nc21 | 762 s |
| O=C(CCCN1CCC(O)(c2cccc(C(F)(F)F)c2)CC1)c1ccc(F)cc1 | 805 s |
| Cc1ccnc(NS(=O)(=O)c2ccc(N)cc2)n1 | 652 s |
| Cc1nc2c(C(=O)N3CCN(c4ccccn4)CC3)cnn2c(C)c1Cc1ccccc1Cl | 697 s |
| Cc1nnc(-c2coc(S(=O)(=O)N3CCCCC3)c2)o1 | 767 s |
| CCOc1ccc(CC(=O)NC2CCN(c3cc(-c4ccccc4)[nH]n3)C2)cc1OCC (centres undefined) | 721 s |
| O=C(N[C@@H]1CN(Cc2cc(Cl)ccc2F)C[C@H]1CO)C1CCC1 | 610 s |
| Cc1ccc(C(=O)N2CCc3c(c(C(=O)N4CCCC(C(=O)NC5CC5)C4)nn3C)C2)cc1 (centres undefined) | 661 s |
| COc1cc(-c2noc(CCn3nc(-c4ccc(Cl)cc4)ccc3=O)n2)cc(OC)c1OC | 974 s |
| CCOC[C@@H]1CC(F)(F)CN1C1CCN(Cc2ccc3cc[nH]c3c2)CC1 | 656 s |
| COc1cccc(CNC(=O)C2CCCN(c3ncnc4c3oc3ccccc34)C2)c1 (centres undefined) | 734 s |
| Cc1ccc(NS(=O)(=O)c2ccc3c4c(cccc24)C(=O)N3)c(C)c1 | 751 s |
| O=C(Cc1cccc(C(F)(F)F)c1)Nc1cccn2cnnc12 | 744 s |
| CCn1ncc(NC(=O)c2cccc(F)c2)c(N2CCOCC2)c1=O | 788 s |
| CC12CC(c3ccccc3O1)C(C(=O)N1CCN(C(=O)c3ccco3)CC1)C(=O)N2 (centres undefined) | 624 s |
| COc1ccccc1-c1csc(NC(=O)Cc2csc(C)n2)n1 | 881 s |
| CN1c2cc(F)ccc2C(=O)NC12CCN(C(=O)c1ccc(Cl)cc1)CC2 | 785 s |
| Cc1cc(N2CCCC2)nc(N2CCN(S(=O)(=O)c3ccc(Br)cc3)CC2)n1 | 820 s |

| Structure (SMILES) | RP-LC retention time |
| --- | --- |
| O=C(Nc1ccccc1)C1CCCN(c2cnc3nccnc3c2)C1 (centres undefined) | 703 s |
| Cc1cc(C(=O)NCC(C)C)c2cc(Cl)ccc2n1 | 784 s |
| Cc1ccc(-n2c(=O)c3sccc3n(Cc3nc(-c4ccc(F)cc4)no3)c2=O)cc1 | 1030 s |
| Cc1ccc(NS(=O)(=O)c2ccc(-c3c(C)noc3C)cc2)cc1 | 928 s |
| Cc1nc2c(sc3nc(-c4ccccc4)ccc32)c(=O)n1CC(=O)NCc1cccs1 | 750 s |
| CC(=O)Nc1ccc(CCc2nc3ccc(C(=O)NCc4cccc(Br)c4)cc3[nH]2)cc1 | 669 s |
| CCOc1ccc(NC(=O)N2CCC[C@@H]2C(=O)NCc2csc(-c3ccccc3)n2)cc1 | 808 s |
| CCOC(=O)C1=C(O)C(=O)N(Cc2ccccc2)C1 | 834 s |
| Cc1ccc(-c2nnc(Cc3nc(-c4cccc(Cl)c4)no3)o2)cc1F | 1170 s |
| COc1ccc(C)cc1NC(=O)C1CCN(S(=O)(=O)c2cc(C(=O)N3CCCC3)n(C)c2)CC1 | 809 s |
| CCCCOc1ccc(CNC(=O)CSc2nccnc2Oc2ccccc2)cc1 | 1130 s |
| CCn1ccc(C(=O)Nc2c3c(nn2C)CCC3)n1 | 621 s |
| O=c1c2cnn(-c3ccc(Br)cc3)c2ncn1Cc1nc(-c2ccc(F)cc2)no1 | 1150 s |
| CC(C)(Oc1ccc(Cl)cc1)C(=O)OCn1nnc2ccccc2c1=O | 1010 s |
| CCCc1ccc(S(=O)(=O)N2CCC(c3noc(-c4ccc(C)cc4)n3)CC2)cc1 | 1370 s |
| CC(=O)N1CCc2cc(CNS(=O)(=O)c3ccc(F)cc3)ccc21 | 738 s |
| O=C(Nc1cnc(N2CCCCC2)nc1)C1CCCC1 | 834 s |
| COC(=O)[C@@H](N)CSC/C=C(\C)CC/C=C(\C)CCC=C(C)C | 961 s |
| CCc1c(C(=O)O)nnn1Cc1ccccc1 | 701 s |
| O=C(NCc1ccc(F)cc1)c1ccc2c(cnn2CC(=O)N2CCCCCC2)c1 | 951 s |
| CSc1nnc(-c2nn(C)c3c2CN(C(=O)c2ccc(F)cc2)CC3)n1C | 656 s |
| CCOc1ccccc1CNC(=O)c1nnc(-c2ccc(S(=O)(=O)N(C)C)cc2)o1 | 945 s |
| O=C(C1CC=CCC1)N1CCCC(COCc2ccccc2)C1 (centres undefined) | 979 s |

| Structure (SMILES) | RP-LC retention time |
| --- | --- |
| CCCC(=O)n1nc(C)c(S(=O)(=O)N2CCOCC2)c1C | 954 s |
| Cc1nnc(-c2cc3ccccc3n2CC(=O)Nc2ccc(C(F)(F)F)cc2)o1 | 966 s |
| CC(=O)N1CC[C@]2(CO)CN(C(=O)c3ccoc3C)C[C@@H]2C1 | 583 s |
| O=C(CCCn1nnc2ccccc2c1=O)Nc1ccccc1Cl | 770 s |
| COc1ccc(S(=O)(=O)N2CCC(c3ccncc3)CC2)cc1Cl | 667 s |
| CCCCN(CCCNC(=O)C1CCN(S(=O)(=O)CCC)CC1)Cc1ccccc1 | 672 s |
| Nc1cc(C2CCN(S(=O)(=O)c3ccc(Cl)cc3)CC2)no1 | 826 s |
| CC1=C(C(=O)NC2CCN(Cc3ccccc3)CC2)C2(CCCCC2)OC1=O | 633 s |
| CCn1cnc(S(=O)(=O)N2CCC(C(=O)Nc3ccccc3OC)CC2)c1 | 666 s |
| CN(C)CCCNc1cc(N2CCOCC2)c2noc3c2c1C(=O)c1ccccc1-3 | 770 s |
| COc1ccc(CN2C=C(C(=O)OCc3nc(C4CC4)no3)C(C)=NS2(=O)=O)cc1 | 972 s |
| CCn1c(N2CCC(C(=O)N3CCN(c4ccccn4)CC3)CC2)cc(=O)n(C)c1=O | 584 s |
| COCCCNS(=O)(=O)c1cc(-c2nc(C)cs2)n(CC(=O)N2CCCCC2)c1 | 824 s |
| CCN1CCCCc2cc(C(=O)N(C)CC(=O)NC)sc21 | 738 s |
| CC1CCC(NC(=O)c2nnn(Cc3ccc(F)cc3)c2-n2cccc2)CC1 (centres undefined) | 1160 s |
| CCc1noc(NC(C)=O)c1-c1ccc(OC)c(S(=O)(=O)Nc2c(C)cccc2C)c1 | 790 s |
| O=C(NCC1CCOCC1)c1c[nH]c2ccccc12 | 636 s |
| c1ccc(CCc2nc(-c3ccnc(N4CCOCC4)c3)no2)cc1 | 919 s |
| CCc1nc(-c2csc(S(=O)(=O)N3CCC(C(=O)N4CCCCC4)CC3)c2)no1 | 903 s |
| Cc1cccc(-c2ncccc2CNS(=O)(=O)c2cc(F)ccc2F)c1 | 738 s |
